According to ChEMBL document CHEMBL1147948, “Preparation of novel anthranilic acids as antibacterial agents: extensive evaluation of structural and physical properties on antibacterial activity and human serum albumin affinity” (Bioorg Med Chem Lett, 2007):
Values after ≈ are worked out from the molar mass of the structure shown.

What was measured:
Staphylococcus aureus [1] = assay: Antibacterial activity against Staphylococcus aureus UC 9218 in presence of 10% human serum; type: functional
Staphylococcus aureus [2] = assay: Ratio of MIC of Staphylococcus aureus UC 9218 in presence of 10% serum to MIC of Staphylococcus aureus UC 9218 in absence of serum; type: functional
Staphylococcus aureus [3] = assay: Antibacterial activity against Staphylococcus aureus UC 9218; type: functional
Albumin = Albumin (Homo sapiens, UniProt P02768); assay: Binding affinity to human serum albumin
Staphylococcus aureus [4] = assay: Antibacterial activity against Staphylococcus aureus UC 9218 in presence of 5% human serum; type: functional

Sequence of Albumin (P02768 whole entry): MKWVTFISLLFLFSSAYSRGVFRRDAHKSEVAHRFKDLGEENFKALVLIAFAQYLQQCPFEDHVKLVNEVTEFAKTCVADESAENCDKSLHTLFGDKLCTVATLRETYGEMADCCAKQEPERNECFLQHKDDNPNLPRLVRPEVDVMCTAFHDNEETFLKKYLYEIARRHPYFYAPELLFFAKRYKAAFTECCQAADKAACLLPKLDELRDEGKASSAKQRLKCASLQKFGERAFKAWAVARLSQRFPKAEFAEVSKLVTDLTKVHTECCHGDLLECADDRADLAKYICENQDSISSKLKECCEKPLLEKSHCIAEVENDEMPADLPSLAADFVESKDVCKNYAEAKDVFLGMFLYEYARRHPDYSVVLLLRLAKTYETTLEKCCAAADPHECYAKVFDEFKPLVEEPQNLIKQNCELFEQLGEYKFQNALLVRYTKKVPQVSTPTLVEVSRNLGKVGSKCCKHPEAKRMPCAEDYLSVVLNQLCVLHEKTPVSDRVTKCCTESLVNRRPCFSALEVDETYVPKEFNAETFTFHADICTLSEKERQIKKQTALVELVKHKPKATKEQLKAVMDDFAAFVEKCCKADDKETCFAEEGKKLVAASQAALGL

| MIC (Staphylococcus aureus [1]) [µg/mL] | MIC (Staphylococcus aureus [3]) [µg/mL] | Kd (Albumin) [µM] | MIC (Staphylococcus aureus [4]) [µg/mL] | SMILES | Ratio (Staphylococcus aureus [2]) |
| --- | --- | --- | --- | --- | --- |
| 16 |  |  |  | CCCCC(C)Sc1ccc(C(=O)Nc2ccc(C#N)cc2C(=O)O)cn1 (stereo not given) | 128 |
| 32 | 0.5 (≈ 1.46 µM) |  |  | CCCSc1ccc(C(=O)Nc2ccc(C#N)cc2C(=O)O)cn1 | 64 |
| 64 |  |  |  | CCCCCCSc1ccc(C(=O)Nc2ccc(Cl)cc2C(=O)O)cn1 | 512 |
| 16 | 1 (≈ 2.93 µM) |  |  | CC(C)Sc1ccc(C(=O)Nc2ccc(C#N)cc2C(=O)O)cn1 | 16 |
| 4 |  |  |  | CCCCCSc1ccc(C(=O)Nc2ccc(C#N)cc2C(=O)O)cn1 | 32 |
| 16 | 0.5 (≈ 1.36 µM) |  |  | N#Cc1ccc(NC(=O)c2ccc(SC3CCCC3)nc2)c(C(=O)O)c1 | 32 |
| 32 | 1 (≈ 2.53 µM) |  |  | CC(C)Sc1ccc(C(=O)Nc2ccc(Br)cc2C(=O)O)cn1 | 32 |
| 32 | 0.5 (≈ 1.31 µM) |  |  | N#Cc1ccc(NC(=O)c2ccc(SC3CCCCC3)nc2)c(C(=O)O)c1 | 64 |
| 4 | 1 (≈ 2.41 µM) | 0.7 |  | COCCOCCCSc1ccc(C(=O)Nc2ccc(C#N)cc2C(=O)O)cn1 | 4 |
| 8 | 0.5 (≈ 1.41 µM) |  |  | CC(C)CSc1ccc(C(=O)Nc2ccc(C#N)cc2C(=O)O)cn1 | 16 |
| 64 |  |  |  | CCCCCCSc1ccc(C(=O)Nc2ccc(Br)cc2C(=O)O)cn1 | 512 |
| 8 |  |  |  | CCCCCCSc1ccc(C(=O)Nc2ccc(C#N)cc2C(=O)O)cn1 | 64 |
| > 128 | 32 (≈ 102 µM) |  |  | CSc1ccc(C(=O)Nc2ccc(C#N)cc2C(=O)O)cn1 | 8 |
| > 128 | 16 (≈ 27.2 µM) |  | > 128 | CC(C)(C)c1ccc(-c2ccc(NC(=O)c3cccc(S(=O)(=O)N4CCc5cc(Cl)ccc54)c3)c(C(=O)O)c2)cc1 |  |
| 8 | 0.5 (≈ 1.53 µM) |  |  | CCSc1ccc(C(=O)Nc2ccc(C#N)cc2C(=O)O)cn1 | 16 |
| > 128 |  |  | > 128 | CC(C)(C)c1ccc(-c2cncc(C(=O)Nc3ccc(C#N)cc3C(=O)O)c2)cc1 |  |
| 16 |  |  |  | CCCC(C)Sc1ccc(C(=O)Nc2ccc(C#N)cc2C(=O)O)cn1 (stereo not given) | 128 |
| 4 |  |  |  | N#Cc1ccc(NC(=O)c2ccc(SC3CCOCC3)nc2)c(C(=O)O)c1 | 32 |
| > 128 | 1 (≈ 2.35 µM) |  |  | CCCCCCCCCSc1ccc(C(=O)Nc2ccc(C#N)cc2C(=O)O)cn1 | > 128 |
| 16 |  |  |  | CCCCSc1ccc(C(=O)Nc2ccc(C#N)cc2C(=O)O)cn1 | 64 |
| 64 | 1 (≈ 2.3 µM) |  |  | O=C(Nc1ccc(Br)cc1C(=O)O)c1ccc(SC2CCCCC2)nc1 | 64 |
| 8 |  |  |  | CCC(CC)Sc1ccc(C(=O)Nc2ccc(C#N)cc2C(=O)O)cn1 | 32 |
| 32 | 1 (≈ 2.29 µM) |  |  | O=C(Nc1ccc(Br)cc1C(=O)O)c1ccc(SC2CCOCC2)nc1 | 32 |
